The test system of assay [1] is NQO1 activation in BEAS-2B cells. The assay is described as follows: BEAS-2B cellular MTT assay of NQO1 activation, 0% HSA. In kind it is cell-based. In outline: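 For the 0% HSA condition, cells were seeded into collagen plates in HSA-free medium. Culture was BEAS-2B in BEBM plus BEGM SingleQuots lacking GA-1000, held under 70% confluence, at a seeding density reaching 95-100% confluence by 48 h.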

For assay [2] the test system is unchanged. The assay is described as follows: BEAS-2B cellular MTT assay of NQO1 activation, 0.3% HSA. In kind it is cell-based. In outline: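 MTT read-out in BEAS-2B cells grown in BEBM with SingleQuots, no GA-1000, kept below 70% confluence; plates coated with collagen, with 0.3% or 0% HSA medium, seeded to 95-100% confluency at 48 h, 37 °C, 5% CO2.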
The target of assay [3] is HIS-Keap1 full length / Biotin-Nrf2 (16-mer) (Homo sapiens, UniProt Q14145). In words: biochemical.
Where [4] appears, read: Homo sapiens, serum free, read-out: BEAS EC50 (nM) serum free.
Setting [5] is: Homo sapiens, BEAS+, read-out: BEAS+ EC50.
Setting [6] is: Homo sapiens, Serum Free W, read-out: BEAS EC50 (nM) Serum Free W.
Setting [7] is: Serum Free W, read-out: BEAS EC50 (nM) Serum Free W.
[8] abbreviates: serum free, read-out: BEAS EC50 (nM) serum free.
Where [9] appears, read: BEAS+ W, read-out: BEAS+ W EC50.
The mark [10] stands for this setting: Homo sapiens, BEAS+ W, read-out: BEAS+ W EC50.

Values joined by “and” are separate entries in the source; they are usually repeats but may differ in a detail not shown here. Equal entries are not always repeated.

Chain of HIS-Keap1 full length / Biotin-Nrf2 (16-mer) (Q14145 whole entry): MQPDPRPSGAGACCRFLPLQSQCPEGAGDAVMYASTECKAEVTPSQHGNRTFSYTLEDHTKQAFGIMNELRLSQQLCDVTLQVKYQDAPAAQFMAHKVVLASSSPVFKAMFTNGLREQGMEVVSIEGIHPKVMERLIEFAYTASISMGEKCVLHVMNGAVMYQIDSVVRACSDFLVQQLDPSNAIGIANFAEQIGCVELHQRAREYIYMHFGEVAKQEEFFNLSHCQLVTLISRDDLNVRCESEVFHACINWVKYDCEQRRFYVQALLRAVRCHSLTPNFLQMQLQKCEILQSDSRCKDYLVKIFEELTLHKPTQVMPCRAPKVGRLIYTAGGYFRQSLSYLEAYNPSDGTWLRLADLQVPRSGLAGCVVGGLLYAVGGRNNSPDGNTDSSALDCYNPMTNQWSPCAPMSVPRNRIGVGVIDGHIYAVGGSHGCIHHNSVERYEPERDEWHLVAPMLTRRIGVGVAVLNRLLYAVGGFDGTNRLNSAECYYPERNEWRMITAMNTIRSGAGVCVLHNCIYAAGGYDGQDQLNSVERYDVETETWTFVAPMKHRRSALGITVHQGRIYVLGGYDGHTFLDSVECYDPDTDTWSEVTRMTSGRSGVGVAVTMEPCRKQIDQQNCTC

In the case of `Cc1c2ccc3c1nnn3CCCCCCOc1ccc(cc1F)C(=O)N1CCc3ccc(cc3C1)C2CC(=O)O` (stereo not drawn) [Compound 270], the EC50 in assay [1] (setting [4]) is 56.5 nM; in assay [2] (setting [5]), 55.9 nM. Also, the IC50 in assay [3] is 4 nM and 3.6 nM.
Consider `Cc1c2ccc3c1nnn3CCCCCCc1ccc(cc1)C(=O)N1CCc3ccc(cc3C1)[C@H]2[C@H](C)C(=O)O` [Compound 134], for which the concentration for a half-maximal effect (EC50) in assay [1] (setting [6]) was 56.5 nM; in assay [1] (setting [4]), 22.6 nM; in assay [1] (setting [7]) it was 90.8 nM; in assay [1] (setting [8]) it was 20.2 nM; in assay [2] (setting [9]) it was 203 nM; in assay [2] (BEAS+, read-out: BEAS+ EC50), 72.8 nM. In addition, the results for the EC50 in assay [2] (setting [10]) and in assay [2] (setting [5]) were 143 nM and 80.5 nM, respectively. Further, in assay [3], the IC50 was 3.8 nM (2×) and 10.4 nM and 9.8 nM.
Take `Cc1cc2ccc1C(=O)N1CCc3ccc(cc3C1)[C@H]([C@H](C)C(=O)O)c1ccc3c(nnn3CCCOCCO2)c1C` [Compound 370]: the EC50 stood at 1480 nM in assay [1] (setting [4]); 1350 nM in assay [1] (setting [8]); 1710 nM in assay [2] (BEAS+, read-out: BEAS+ EC50); 1640 nM in assay [2] (setting [5]). In assay [3], the half-inhibitory concentration (IC50) was 4.3 nM and 4.2 nM.
Regarding `Cc1c2ccc3c1nnn3CCCCCCc1ccc(cc1)C(=O)N1CCc3ccc(cc3C1)[C@@H]2[C@H](C)C(=O)O` (racemic) [Compound 200], the concentration for a half-maximal effect (EC50) in assay [1] (setting [4]) stood at 3.4 nM; in assay [1] (setting [8]), 6.5 nM; in assay [2] (BEAS+, read-out: BEAS+ EC50) it was 9.3 nM; in assay [2] (setting [5]), 9.5 nM. Also, in assay [3], the IC50 is 87.3 nM and 86.3 nM.
Take `O=C(O)CC1c2cnc(nc2)OCCCCCc2ccc(c(F)c2)C(=O)N2CCc3ccc1cc3C2` (stereo not drawn) [Compound 238]: the EC50 in assay [1] (setting [4]) stood at 571 nM; in assay [1] (setting [8]), 377 nM; in assay [2] (BEAS+, read-out: BEAS+ EC50) it was 603 nM; in assay [2] (setting [5]), 572 nM. Moreover, half-maximal inhibition in assay [3] (IC50) required 6.2 nM.
As for `C[C@@H](C(=O)O)[C@H]1c2ccc3c(c2)CN(CC3)C(=O)c2ccc(cc2)OCCCCCCn2nnc3cc1ccc32` [Compound 324], the half-maximal effective concentration (EC50) in assay [1] (setting [4]) is 6 nM; in assay [2] (setting [5]), 18.1 nM. In addition, in assay [3], the midpoint of inhibition, the IC50, lay at 0.4 nM.
As to `Cc1c2ccc3c1nnn3CCCCCn1ccc3ccc(cc31)C(=O)N1CCc3ccc(cc3C1)C2CC(=O)O` (stereo not drawn) [Compound 393], the 50% effective concentration (EC50) is 2450 nM in assay [1] (setting [4]); 2110 nM in assay [1] (setting [8]); 2250 nM in assay [2] (BEAS+, read-out: BEAS+ EC50); 1890 nM in assay [2] (setting [5]). For the same molecule, the half-maximal inhibitory concentration (IC50) in assay [3] was 3.8 nM and 4.3 nM.
As to `Cc1cc2ccc1OCCCCCCn1nnc3c(C)c(ccc31)C(CC(=O)O)c1ccc3c(c1)CN(CC3)C2=O` (stereo not drawn) [Compound 260], the concentration giving a half-maximal response (EC50) was 400 nM in assay [1] (setting [4]); 403 nM in assay [1] (setting [8]); 484 nM in assay [2] (BEAS+, read-out: BEAS+ EC50); 337 nM in assay [2] (setting [5]). For the same molecule, the IC50 in assay [3] was determined as 6 nM.
Take `COc1cc2ccc1CCCCCCn1nnc3c(C)c(ccc31)[C@@H](CC(=O)O)c1ccc3c(c1)CN(CC3)C2=O` [Compound 101]: the concentration giving a half-maximal response (EC50) worked out at 4.7 nM in assay [1] (setting [6]), 5.1 nM in assay [1] (setting [7]), 31 nM in assay [2] (setting [9]) and 34.9 nM in assay [2] (setting [10]). Also, the IC50 in assay [3] was 2.6 nM and 2.8 nM.
Consider `Cc1c2ccc3c1nnn3CCCCCCOc1ccc(cn1)C(=O)N1CCc3ccc(cc3C1)C2CC(=O)O` (stereo not drawn) [Compound 378], for which the 50% effective concentration (EC50) in assay [1] (setting [4]) was 133 nM; in assay [1] (setting [8]) it was 139 nM; in assay [2] (BEAS+, read-out: BEAS+ EC50) it was 155 nM; in assay [2] (setting [5]), 213 nM. Also, the IC50 in assay [3] was 7.7 nM and 8 nM.
For `O=C(O)CC1c2ccc3c(c2)CN(CC3)C(=O)c2c(F)cc(cc2F)CCCCCCn2nnc3cc1ccc32` (stereo not drawn) [Compound 243], the 50% effective concentration (EC50) in assay [1] (setting [4]) came out at 40.7 nM; in assay [1] (setting [8]), 48.7 nM; in assay [2] (BEAS+, read-out: BEAS+ EC50) it was 104 nM; in assay [2] (setting [5]), 71.8 nM. In addition, in assay [3], half-maximal inhibition (IC50) was put at 2.6 nM.
In the case of `Cc1c2ccc3c1nnn3CCCCCc1ccc(cc1)C(=O)N1CCc3ccc(cc3C1)[C@H]2[C@H](C)C(=O)O` [Compound 133], the EC50 in assay [1] (setting [6]) was determined as 16 nM; in assay [1] (setting [7]), 31 nM; in assay [2] (setting [9]) it was 38.9 nM; in assay [2] (setting [10]), 39.4 nM. The 50% inhibitory concentration (IC50) in assay [3] is 1.4 nM and 1.3 nM.

The record behind these values is patent publication US12692274B2, “Tetrahydroisoquinoline derivatives for the treatment of red blood disorders and inflammatory diseases” (Sanofi, priority 2020, dated 2026).
